The text below walks through data of patent US20260347337A1, “MICROBIOCIDAL PYRAZOLE DERIVATIVES” (priority 2022, published 2026).

Experiment [1] concerns Blumeria graminis f. sp. tritici (Erysiphe graminis f. sp. tritici). The experiment in a line: Blumeria graminis f. sp. tritici/wheat/leaf disc preventative (powdery mildew on wheat). Format: in vivo. The settings on record: 200 ppm, wheat leaf segments cv. Kanzler, inoculated 1 day after application, assessed 6-8 days after application. How it is done:
Example B4: Blumeria graminis f. Sp. Tritici (Erysiphe graminis f. Sp. Tritici)/Wheat/Leaf Disc Preventative (Powdery Mildew on Wheat)
Wheat leaf segments cv. Kanzler are placed on agar in a multiwell plate (24-well format) and sprayed with the formulated test compound diluted in water. The leaf disks are inoculated by shaking powdery mildew infected plants above the test plates 1 day after application. The inoculated leaf disks are incubated at 20° C. and 60% rh under a light regime of 24 h darkness followed by 12 h light/12 h darkness in a climate chamber and the activity of a compound is assessed as percent disease control compared to untreated when an appropriate level of disease damage appears on untreated check leaf segments (6-8 days after application).

The test system of another experiment is Plasmopara viticola. Format: in vivo. The settings on record: 200 ppm; grape vine leaf disks; preventative, inoculated 1 day after application; assessed 6-8 days after application.
The subject of another experiment is Phytophthora infestans. Type of experiment: in vivo. To be noted: 200 ppm; tomato leaf disks; preventative, inoculated 1 day after application; assessed 5-7 days after application.
For experiment [2], the system named is Glomerella lagenarium (Colletotrichum lagenarium). The experiment in a line: Glomerella lagenarium (Colletotrichum lagenarium)/liquid culture (anthracnose), inhibition of growth. Format: cell-based. To be noted: Colletotrichum orbiculare, liquid culture, PDB, 24° C., 3-4 days after application, read-out: control of Glomerella lagenarium (inhibition of growth vs untreated). How it is done:
Example B3: Glomerella lagenarium (Colletotrichum lagenarium)/Liquid Culture (Anthracnose)
Conidia of the fungus from cryogenic storage are directly mixed into nutrient broth (PDB potato dextrose broth). After placing a (DMSO) solution of test compound into a microtiter plate (96-well format), the nutrient broth containing the fungal spores is added. The test plates are incubated at 24° C. and the inhibition of growth is measured photometrically 3-4 days after application.

Experiment [3] deals with Mycosphaerella graminicola (Septoria tritici). The experiment in a line: Mycosphaerella graminicola (Septoria tritici)/liquid culture (Septoria blotch), inhibition of growth. Type of experiment: cell-based. The settings on record: Zymoseptoria tritici, liquid culture, PDB, 24° C., 4-5 days after application, read-out: control of Mycosphaerella graminicola (inhibition of growth vs untreated). How it is done:
Example B12: Mycosphaerella graminicola (Septoria tritici)/Liquid Culture (Septoria Blotch)
(§1) Conidia of the fungus from cryogenic storage are directly mixed into nutrient broth (PDB potato dextrose broth). After placing a (DMSO) solution of test compound into a microtiter plate (96-well format), the nutrient broth containing the fungal spores is added. The test plates are incubated at 24° C. and the inhibition of growth is determined photometrically 4-5 days after application.

The subject of a further experiment is Alternaria solani. The experiment in a line: Alternaria solani/tomato/leaf disc (early blight). Format: in vivo. The settings on record: 200 ppm; tomato leaf disks cv. Baby; inoculated 2 days after application; assessed 5-7 days after application. How it is done:
Example B1: Alternaria solani/Tomato/Leaf Disc (Early Blight)
Tomato leaf disks cv. Baby are placed on agar in multiwell plates (24-well format) and sprayed with the formulated test compound diluted in water. The leaf disks are inoculated with a spore suspension of the fungus 2 days after application. The inoculated leaf disks are incubated at 23° C./21° C. (day/night) and 80% rh under a light regime of 12/12 h (light/dark) in a climate cabinet and the activity of a compound is assessed as percent disease control compared to untreated when an appropriate level of disease damage appears on untreated check disk leaf disks (5-7 days after application).

Another experiment has as its system Pyrenophora teres. The experiment in a line: Pyrenophora teres/barley/leaf disc preventative (net blotch). Format: in vivo. The settings on record: 200 ppm, barley leaf segments cv. Hasso, inoculated 2 days after application, assessed 5-7 days after application. How it is done:
Example B10: Pyrenophora teres/Barley/Leaf Disc Preventative (Net Blotch)
Barley leaf segments cv. Hasso are placed on agar in a multiwell plate (24-well format) and sprayed with the formulated test compound diluted in water. The leaf segments are inoculated with a spore suspension of the fungus 2 days after application. The inoculated leaf segments are incubated at 20° C. and 65% rh under a light regime of 12 h light/12 h darkness in a climate cabinet and the activity of a compound is assessed as disease control compared to untreated when an appropriate level of disease damage appears in untreated check leaf segments (5-7 days after application).

Experiment [4] deals with Phaeosphaeria nodorum (Septoria nodorum). The experiment in a line: Phaeosphaeria nodorum (Septoria nodorum)/wheat/leaf disc preventative (glume blotch). Type of experiment: in vivo. To be noted: 200 ppm, wheat leaf segments cv. Kanzler, inoculated 2 days after application, assessed 5-7 days after application. How it is done:
Example B7: Phaeosphaeria nodorum (Septoria nodorum)/Wheat/Leaf Disc Preventative (Glume Blotch)
Wheat leaf segments cv. Kanzler are placed on agar in a multiwell plate (24-well format) and sprayed with the formulated test compound diluted in water. The leaf disks are inoculated with a spore suspension of the fungus 2 days after application. The inoculated test leaf disks are incubated at 20° C. and 75% rh under a light regime of 12 h light/12 h darkness in a climate cabinet and the activity of a compound is assessed as percent disease control compared to untreated when an appropriate level of disease damage appears in untreated check leaf disks (5-7 days after application).

Experiment [5] concerns Mycosphaerella arachidis (Cercospora arachidicola). The experiment in a line: Mycosphaerella arachidis (Cercospora arachidicola)/liquid culture (early leaf spot), inhibition of growth. Type of experiment: cell-based. The settings on record: liquid culture, PDB, 24° C., 4-5 days after application, read-out: control of Mycosphaerella arachidis (inhibition of growth vs untreated). How it is done: Example B9: Mycosphaerella arachidis (Cercospora arachidicola)/Liquid Culture (Early Leaf Spot)
as §1

A further experiment relates to Fusarium culmorum. The experiment in a line: microbe, parasite or virus in culture. Type of experiment: cell-based. The settings on record: read-out: control of Fusarium culmorum (inhibition of growth vs untreated).
Experiment [6] relates to Monographella nivalis (Microdochium nivale). The experiment in a line: Monographella nivalis (Microdochium nivale)/liquid culture (foot rot cereals), inhibition of growth. Format: cell-based. To be noted: liquid culture, PDB, 24° C., 4-5 days after application, read-out: control of Monographella nivalis (inhibition of growth vs untreated). How it is done: Example B8: Monographella nivalis (Microdochium nivale)/Liquid Culture (Foot Rot Cereals)
as §1

The subject of experiment [7] is Botryotinia fuckeliana (Botrytis cinerea). The experiment in a line: Botryotinia fuckeliana (Botrytis cinerea)/liquid culture (gray mould), inhibition of growth. Format: cell-based. The settings on record: liquid culture, Vogels broth, 24° C., 3-4 days after application, read-out: control of Botryotinia fuckeliana (inhibition of growth vs untreated). How it is done:
Example B2: Botryotinia fuckeliana (Botrytis cinerea)/Liquid Culture (Gray Mould)
Conidia of the fungus from cryogenic storage are directly mixed into nutrient broth (Vogels broth). After placing a (DMSO) solution of test compound into a microtiter plate (96-well format), the nutrient broth containing the fungal spores is added. The test plates are incubated at 24° C. and the inhibition of growth is determined photometrically 3-4 days after application.

Experiment [8] concerns Gibberella zeae (Fusarium graminearum). Format: in vivo. To be noted: 200 ppm; wheat spikelets cv. Monsun; preventative, inoculated 1 day after application; assessed 6-8 days after application.

`Cn1cc(C(C)(CNC(=O)c2cnn(-c3ccc(F)cc3F)n2)c2cccc(C#N)n2)cn1` (centres unmarked) [Compound P-2, N-[2-(6-cyano-2-pyridyl)-2-(1-methylpyrazol-4-yl)propyl]-2-(2,4-difluorophenyl)triazole-4-carboxamide]: the “control of Blumeria graminis f. sp. tritici (percent disease control compared to untreated)” value in experiment [1] is on record as “at least 80%”. Besides, the “control of Plasmopara viticola (percent disease control compared to untreated)” value in the experiment on Plasmopara viticola is “at least 80%”. Further, in the experiment with Phytophthora infestans, the “control of Phytophthora infestans (percent disease control compared to untreated)” value was “at least 80%”.
Regarding `Cn1cc(C(C)(CNC(=O)c2cn(-c3ncc(F)cc3F)nn2)c2cccc(Cl)n2)cn1` (centres unmarked) [Compound P-7, N-[2-(6-chloro-2-pyridyl)-2-(1-methylpyrazol-4-yl)propyl]-1-(3,5-difluoro-2-pyridyl)triazole-4-carboxamide], the inhibition of growth at 20 ppm (in experiment [2]; in [3]; in experiment [5]; with Fusarium culmorum; in experiment [6]; in experiment [7]) was not below 80% throughout. The “control of Alternaria solani (percent disease control compared to untreated)” value with Alternaria solani was “at least 80%”. In the experiment on Pyrenophora teres, the “control of Pyrenophora teres (disease control compared to untreated)” value is on record as “at least 80%”. Further, the “control of Blumeria graminis f. sp. tritici (percent disease control compared to untreated)” value in experiment [1] was “at least 80%”. Also, in experiment [4], the “control of Phaeosphaeria nodorum (percent disease control compared to untreated)” value is given as “at least 80%”. Moreover, the “control of Gibberella zeae (percent disease control compared to untreated)” value in experiment [8] was “at least 80%”.

A word on the inhibition of growth: it is the drop in the measured response relative to a control, in per cent.
